# Patent publication US20240398845A1, “USE OF SGLT-2 INHIBITORS FOR THE PREVENTION AND/OR TREATMENT OF CARDIAC DISEASES IN NON-HUMAN MAMMALS EXCLUDING FELINES, IN PARTICULAR CANINES” (BOEHRINGER INGELHEIM VETMEDICA GMBH, priority 2021, published 2024)
# Tested on: Beagle dogs with asymptomatic/preclinical ACVIM stage B2 MMVD
# Assay: Exploratory laboratory study in dogs with asymptomatic/preclinical myxomatous mitral valve disease (MMVD)
# Format: in vivo, dog
# From the text: Echocardiographic findings in dogs with MMVD stage B2 include degenerative valvular changes, increased left atrial dimension (LA/AO-ratio≥1.6), and increased left ventricular end-diastolic dimensions normalized to body weight (LVIDDN≥1.7) (Keene et al., 2019). For evaluation of survival time a severity score (MINE score) based on the echocardiographic variables above, the cardiac contractility (fractional shortening, FS %), and transmitral peak E-wave velocity was initiated (Vezzosi T et al., J Vet Intern Med. 2021, 35(3):1238-1244). The MINE score is associate with the survival time and provides therefore prognostic information.
# The objective of this study was to evaluate velagliflozin, a sodium-glucose co-transporter-2 inhibitor, as a treatment for dogs with asymptomatic/preclinical ACVIM stage B2 MMVD. Three Beagle dogs previously diagnosed with this condition by a veterinary cardiologist were included in the study.
# Baseline assessments included body weight measurements, veterinary examinations, echocardiographs, urinalysis, blood collections for hematology, biochemistry, BHB, NT-proBNP, cTnI, and erythropoietin analysis as well as radiographs to assess heart size, pulmonary edema, and congestion. On study Day 0, once daily oral administration of velagliflozin (0.05 mg/kg bodyweight) was initiated. Veterinary examinations, urinalysis, and blood collections for analysis of the above-mentioned parameters were repeated on Days 32, 59, and 91. Echocardiographs were repeated on Days 23, 58, and 93. General health observations are conducted twice daily, and body weights measured approximately every 3 weeks.
# Additionally, the “The Mitral Insufficiency Echocardiographic” score, a severity classification of myxomatous mitral valve disease (MMVD) in dogs (MINE score) was calculated (Vezzosi et al., 2021). This score as an easy-to-use echocardiographic classification of severity of MMVD based on routinely acquired echocardiographic variables. The hypothesis was that the MINE score is clinically effective since it is associated with median survival time of the animals (see tables 5 and 6 below).
# [1] = Azul, Day 58, velagliflozin 0.05 mg/kg bodyweight oral once daily
structure (smiles),measurement,setting,value
"N#Cc1ccc([C@@H]2O[C@H](CO)[C@@H](O)[C@H](O)[C@H]2O)cc1Cc1ccc(C2CC2)cc1 [velagliflozin, Velagliflozin]",MINE severity classification,"Azul, D93, moderate at baseline",severe
same,LVIDDN reduction from baseline,[1],3.56%
same,decrease from baseline in LA/Ao ratio,[1],17.3%
same,NT-proBNP reduction from baseline,"Azul, Day 59, within the reference range",76.3%
same,NT-proBNP reduction from baseline,"Azul, Day 91",45.8%
same,Total MINE score,"Azul, Day 93, base line 7 (Moderate), increase due to increase in FS %, might be due to cystitis","8 (Increase due to increase in FS %, also showed an"
same,LVIDDN change versus baseline,"Azul, Day 93, just above baseline",+0.81%
same,LA/Ao ratio below baseline,"Azul, Day 93, velagliflozin 0.05 mg/kg bodyweight oral once daily",1.08%
same,adverse event in one animal,"Azul, during treatment, recovered",developed a cystitis
same,LVIDDN (in words),"Azul, summary",no change
same,LA/AO-ratio (in words),"Azul, summary at D93",no change
same,LVIDDN (in words),"Birdie and Shelby, summary, within day-to-day variability",slight decrease (improvement)
same,LVIDDN reduction from baseline,"Birdie, Day 93",5.25%
same,MINE severity classification,"Birdie, Day 93, Mild at base line",Mild (4-5)
same,Total MINE score,"Birdie, Day 93, base line 5 (Mild)",5
same,reduction from baseline in LA/Ao ratio,"Birdie, Day 93, velagliflozin 0.05 mg/kg bodyweight oral once daily",12.73%
same,left atrial size (in words),"Birdie, summary, beyond day-to-day variability",normalization of the left atrial size
same,NT-proBNP reduction from baseline,"Shelby, Day 91, still above the reference range",45.6%
same,LVIDDN reduction from baseline,"Shelby, Day 93",3.54%
same,MINE severity classification,"Shelby, Day 93, Moderate at base line",Moderate (6-7)
same,Total MINE score,"Shelby, Day 93, base line 7 (Moderate), decrease due to improvement in left ventricular diameter",6
same,LA/AO-ratio (in words),"Shelby, summary, within day-to-day variability",slight increase (worsening)
same,reduction in LA/Ao ratio from baseline,"Shelby, velagliflozin 0.05 mg/kg bodyweight oral once daily",had not shown a reduction
same,survival at the time of the interim analysis,"all three dogs, D94",still alive
same,"blood glucose, renal function, or serum electrolytes",any time in any animal,no changes
same,observations following dosing,attributed to oral administration of a liquid product,"Lip smacking/licking, head shaking, grimacing, and salivating"
same,most frequent abnormal observation following initiation of treatment,"group housed dogs, relationship to test product unknown, one instance also at baseline",vomit found within the housing pen
same,changes in cTnI,"three Beagle dogs, velagliflozin 0.05 mg/kg bodyweight oral once daily",do not appear to be showing a clinically significant trend
same,"hematology, biochemistry, or erythropoietin parameters","three Beagle dogs, velagliflozin 0.05 mg/kg bodyweight oral once daily, Days 32, 59, 91",No clinically significant changes
same,glucosuria,"three dogs, pharmacodynamic effectiveness",noted in all three dogs
same,development of congestive heart failure (CHF),"three dogs, until D94, velagliflozin 0.05 mg/kg bodyweight once daily only",None of the study dogs developed congestive heart failure
same,overall disease state,"three dogs, until interim analysis at D94",stable disease states with signs of improvement
